# Assay results: patent publication US6391902B1, “Substituted benzofuranoindoles and indenoindoles as novel potassium channel openers” (American Home Products Corporation, priority 1998, dated 2002)
# Marks after values point to notes of the source that are not given here.
# What was measured:
# Bladder Tissue = assay: Relaxation of KCl-stimulated isolated rat bladder strips (contractile activity); parameters: species or system Sprague-Dawley rats; conditions: for inhibition at 30 µM: read-out: Bladder Tissue I = Percent inhibition at 30 μM
# Description: Sprague-Dawley rats (150-200 g) are rendered unconscious by CO2 asphyxiation and then euthanized by cervical dislocation. The bladder is removed into warm (37° C.) physiological salt solution (PSS) of the following composition (mM): NaCl, 118.4; KCl, 4.7; CaCl2, 2.5; […]; NaHCO3, 24.9; KH2PO4, 1.2; glucose, 11.1; EDTA, 0.023; gassed with 95% O2; […]; pH 7.4. The bladder is opened and then cut into strips 1-2 mm in width and 7-10 mm in length. The strips are subsequently suspended in a 10 mL tissue bath under an initial resting tension of 1.5 g. The strips are held in place by two surgical clips one of which is attached to a fixed hook while the other is attached to an isometric force transducer. […] The carbachol is then washed out and the tissue allowed to relax to its resting level of activity. Following a further 30 min period of recovery an additional 15 mM KCl re introduced into the tissue bath. […] Following stabilization of this enhanced level of contractile activity, incremental increases in the concentration of test compound or vehicle are introduced into the tissue bath. Contractile activity is measured for each compound or vehicle concentration during the last minute of a 30 minute challenge.
# Aorta Tissue = assay: Relaxation of KCl-contracted isolated rat thoracic aortic rings (contractile force); parameters: species or system Sprague-Dawley rats; conditions: for IC50: Rattus norvegicus; for Ratio Aorta IC50 / Bladder IC50: aorta IC50 divided by bladder IC50, tissue selectivity
# Description: The smooth muscle (aorta) relaxing activity of the compounds of this ivention was established in accordance with standard pharmaceutically accepted test procedures with representative compounds as follows.
# Male Sprague-Dawley rats (150-200 g) are rendered unconscious by CO2 asphyxiation and then euthanized by cervical dislocation. The thoracic aorta is removed into warm (37° C.) physiological sial solution (PSS) of the following composition (mM): NaCl, 118.4; KCl, 4.7; CaCl2, 2.5; MgSO4.7H2O, 1.2; NaHCO3, 24.9; KH2PO4, 1.2; glucose, 11.1; EDTA, 0.023; gassed with 95% O2/5% CO2; pH 7.4. The aorta is cleaned of fat and loose adventitia and cut into rings 3-4 mm in width. The rings are subsequently suspended between two stainless steel wire tissue holders in a 10 mL tissue bath. One wire tissue holder is attached to a fixed hook while the other is attached to an isometric force transducer. Resting tension is set at 1 g. The tissues are to recover for a period of 60 min prior to beginning the experiment. Tissues are challenged with PSS containing 25 mM KCl to elicit a contracture. The tissues are then washed repeatedly with fresh PSS over a period of 30 min and allowed to recover to baseline tension. PSS containing 30-35 mM KCl is then introduced into the tissue bath to evoke a contracture that is allowed to stabilize for not less than 45 min. (Other stimuli such as norepinephrine, PGF2a, histamine, angiotensin II, endothelin or PSS containing 80 mM KCl may also be used to evoke a contracture as necessary). Increasing concentrations of test compound or vehicle are then added to the tissue bath in a cumulative fashion.
# Isometric force development by the aortic rings is measured using a force transducer and recorded on a polygraph. The percentage inhibition of contractile force evoked by each concentration of a given test compound is used to generate a concentration-response curve. […] [Log concentration versus response curves are approximately linear between 20% and 80% of the maximum response. As such, the IC50 concentration of the drug is determined by linear regression analysis (where x=log concentration and y=% inhibition) of the data points in the 20% to 80% region of the curve.] […] Data collected from 2 animals are averaged for primary screens.
# [1] = rat bladder strips, additional 15 mM KCl, 30 μM test compound
SMILES,"IC50 (Bladder Tissue; Rattus norvegicus, 0.5 h)",IC50 (Aorta Tissue),melting point,inhibition at 30 µM (Bladder Tissue; [1]),other results
"CC(NC(=O)c1cccc2c1[nH]c1c3cc(Br)ccc3oc21)C(C)(C)C (stereo not drawn) [Example 12, 8-Bromo-10H-benzo[4,5]furo[3,2-b]indole-1-carboxylic acid (1,2,2-trimethyl-propyl)-amide]",13.9 ± 0.95 µM,25 ± 3.9 µM,173 to 175 °C,–,Ratio Aorta IC50 / Bladder IC50 (Aorta Tissue): 1.8
"OCc1cccc2c1[nH]c1c3cc(Br)ccc3oc21 [Example 7, (8-Bromo-10H-benzo[4,5]furo[3,2-b]indol-1-yl)-methanol]",–,–,218 to 219 °C,–,–
"N#Cc1cccc2c1[nH]c1c3cc(Br)ccc3oc21 [Example 10, 8-Bromo-10H-benzo[4,5]furo[3,2-b]indole-1-carbonitrile hydrate]",–,–,–,10.1%,–
"O=C(O)c1cccc2c1[nH]c1c3cc(Cl)ccc3oc21 [Example 3, 8-Chloro-10H-benzo[4,5]furo[3,2-b]indole-1-carboxylic acid]",5.8 ± 1.5 µM,268 ± 82.3 µM,303 °C (dec.),–,Ratio Aorta IC50 / Bladder IC50 (Aorta Tissue): 46.2
"O=Cc1cccc2c1[nH]c1c3cc(Br)ccc3oc21 [Example 9, 8-Bromo-10H-benzo[4,5]furo[3,2-b]indole-1-carbaldehyde]",–,–,280 to 281 °C,19%,–
"CCC(C)(C)NC(=O)c1cccc2c1[nH]c1c3cc(Br)ccc3oc21 [Example 13, 8-Bromo-10H-benzo[4,5]furo[3,2-b]indole-1-carboxylic acid (1,1-dimethyl-propyl)-amide]",–,–,242 to 244 °C (dec.),28.5%,–
"O.O.O=C(O)c1cccc2c1[nH]c1c3cc([N+](=O)[O-])ccc3oc21 (hydrate or solvate) [Example 4, 8-Nitro-10H-benzo[4,5]furo[3,2-b]indole-1-carboxylic acid dihydrate]",–,–,325 °C (dec.),–,–
"Brc1ccc2oc3c4cccc(-c5nnn[nH]5)c4[nH]c3c2c1 [Example 11, 8-Bromo-1-(1H-tetrazol-5-yl)-10H-benzo[4,5]furo[3,2-b]indole]",–,–,275 to 277 °C (dec.),30.9%,–
"O=C(O)c1cccc2c1[nH]c1c3cc(I)ccc3oc21 [Example 2, 8-Iodo-10H-benzo[4,5]furo[3,2-b]indole-1-carboxylic acid]",6.1 ± 3 µM,128 ± 16.9 µM,297 °C (dec.),–,Ratio Aorta IC50 / Bladder IC50 (Aorta Tissue): 21
"CN(O)C(=O)c1cccc2c1[nH]c1c3cc(Br)ccc3oc21 [Example 8, 8-Bromo-10H-benzo[4,5]furo[3,2-b]indole-1-carboxylic acid hydroxy-methyl amide]",19.8 ± 4.02 µM,8.1 ± 3.6 µM,174 to 175 °C,–,Ratio Aorta IC50 / Bladder IC50 (Aorta Tissue): 0.41
"NC(=O)c1cccc2c1[nH]c1c3cc(Br)ccc3oc21 [Example 5, 8-Bromo-10H-benzo[4,5]furo[3,2-b]indole-1-carboxylic acid amide]",–,–,300 to 301 °C,13.5%,–
"O=C(O)c1cccc2c1Cc1c-2[nH]c2ccc(I)cc12 [Example 17, 8-Iodo-5,10-dihydro-indeno[1,2-b]indole-1-carboxylic acid 0.6 hydrate]",–,–,–,–,"IC50 (Bladder Tissue; rat bladder strips, additional 15 mM KCl, 50% inhibition of pre-drug contractile activity, 30 minute challenge): 10.1 ± 3.2 µM"
"O.O.O=C(O)c1cccc2c1[nH]c1c3cc([N+](=O)[O-])ccc3oc21 [Example 4, 8-Nitro-10H-benzo[4,5]furo[3,2-b]indole-1-carboxylic acid dihydrate]",6.3 ± 2.6 µM,125 ± 13.8 µM,–,–,Ratio Aorta IC50 / Bladder IC50 (Aorta Tissue): 19.8
"N#Cc1cccc2c1[nH]c1c3cc(Br)ccc3oc21.O (hydrate or solvate) [Example 10, 8-Bromo-10H-benzo[4,5]furo[3,2-b]indole-1-carbonitrile hydrate]",–,–,277 to 280 °C (dec.),–,–
"O=C(O)c1cccc2c1[nH]c1c3ccccc3oc21 [Example 16, 10H-Benzo[4,5]furo[3,2-b]indole-1-carboxylic acid]",31 ± 6.5 µM,–,279 to 280 °C (dec.),–,–
"CNC(=O)c1cccc2c1[nH]c1c3cc(Br)ccc3oc21 [Example 14, 8-Bromo-10H-benzo[4,5]furo[3,2-b]indole-1-carboxylic acid methylamide]",–,–,264 to 265 °C (dec.),4.8%,–
"NS(=O)(=O)c1ccc2[nH]c3c(c2c1)Cc1c(C(=O)O)cccc1-3.NS(=O)(=O)c1ccc2[nH]c3c(c2c1)Cc1c(C(=O)O)cccc1-3.O [Example 18, 8-Sulfamoyl-5,10-dihydro-indeno[1,2-b]indole-1-carboxylic acid hemi-hydrate]",–,–,–,–,Bladder Tissue I = Percent inhibition at 30 μM (Bladder Tissue; [1]): I = 5.2%*
"O=C(O)c1cccc2c1[nH]c1c3cc(Br)ccc3oc21 [Example 1, 8-Bromo-10H-benzo[4,5]furo[3,2-b]indole-1-carboxylic acid]",15.1 ± 4.7 µM,119 ± 21.8 µM,312 to 313 °C,–,Ratio Aorta IC50 / Bladder IC50 (Aorta Tissue): 7.9
"COC(=O)c1cccc2c1[nH]c1c3cc(Br)ccc3oc21 [Example 6, 8-Bromo-10H-benzo[4,5]furo[3,2-b]indole-1-carboxylic acid methyl ester]",–,–,204 to 205 °C,31%,–
"COC(=O)c1cccc2c3oc4ccc(Br)cc4c3n(C)c12 [Example 15, 8-Bromo-10-methyl-10H-benzo[4,5]furo[3,2-b]indole-1-carboxylic acid methyl ester]",–,–,195 to 196 °C,4.5%,–

# More lines, main results first:
"IC50 (Bladder Tissue; Rattus norvegicus, 0.5 h)",IC50 (Aorta Tissue),melting point,SMILES,inhibition at 30 µM (Bladder Tissue; [1]),other results
–,–,198 to 200 °C,"CCOC(=O)c1cccc2c1Cc1c-2[nH]c2ccc(Br)cc12 [Example 23, 8-Bromo-5,10-dihydro-indeno[1,2-b]indole-1-carboxylic acid ethyl ester]",20%,–
12.5 ± 5 µM,46.6 ± 18.7 µM,> 300 °C,"O=C(O)c1cccc2c1Cc1c-2[nH]c2ccc(F)cc12 [Example 19, 8-Fluoro-5,10-dihydro-indeno[1,2-b]indole-1-carboxylic acid]",–,Ratio Aorta IC50 / Bladder IC50 (Aorta Tissue): 3.74
22.6 ± 1.8 µM,–,> 300 °C,"O=C(O)c1cccc2c1Cc1c-2[nH]c2ccc(Cl)cc12 [Example 20, 8-Chloro-5,10-dihydro-indeno[1,2-b]indole-1-carboxylic acid]",–,–
4.4 ± 0.95 µM,110 ± 12.4 µM,328 to 330 °C (dec.),"O=C(O)c1cccc2c1Cc1c-2[nH]c2ccc(Br)cc12 [Example 25, 8-Bromo-5,10-dihydro-indeno[1,2-b]indole-1-carboxylic acid]",–,Ratio Aorta IC50 / Bladder IC50 (Aorta Tissue): 25
–,210 ± 45 µM,245 to 247 °C (dec.),"O=C(O)c1cccc2c3c([nH]c12)-c1cc(Br)ccc1C3 [Example 26, 3-Bromo-5,10-dihydro-indeno[1,2-b]indole-6-carboxylic acid]",–,–
–,–,202 to 204 °C,"CCOC(=O)c1cccc2c1Cc1c-2[nH]c2ccc(Cl)cc12 [Example 22, 8-Chloro-5,10-dihydro-indeno[1,2-b]indole-1-carboxylic acid ethyl ester]",8%,–
15.4 ± 4.8 µM,–,256 to 265 °C (dec.),"O=C(O)c1cccc2c1Cc1c-2[nH]c2ccc(OC(F)(F)F)cc12 [Example 21, 8-Trifluoromethoxy-5,10-dihydro-indeno[1,2-b]indole-1-carboxylic acid]",–,–
